In one data set the target is TICA0049 Fab. In words: HTRF competition binding selectivity assay, TICA0049 His-Fab. Details: species or system human. The procedure:
(§1) Total Binding control wells were set up which contained all of the assay components above except that 5 ul assay buffer was added in place of the test selectivity compound addition. Negative Binding control wells were set up which contained all of the assay components included in the Total Binding control wells except that 5ul assay buffer was added in place of the His-Fab addition. Test compound serial titrations were either ½ or ⅓ depending on the particular experiment and top final assay compound concentrations were optimized on a compound specific basis. The concentration of biotinylated ticagrelor and His-Fab was optimized on a Fab specific basis in separate experiments. For the four Fabs investigated at the end of the lead isolation phase (TICA0010, TICA0049, TICA0053 and TICA0072) the final assay reagent concentrations used are set out in Table 1 below:
(§2) For the two Fabs investigated at the end of the lead optimization phase (TICA0162 and TICA0212) the final assay reagent concentrations used were 5nM biotinylated ticagrelor and 1 nM His Fab in both cases. […] In order to enable subsequent normalization of data to correct for any such vehicle related effects parallel titrations of DMSO alone were included in most experiments in which the final assay DMSO concentrations mirrored those of the test compound serial dilutions. At the end of the set up procedure that assay was incubated for 3hrs at RT before being read on an Envision plate reader using a standard read protocol.
(§3) The negative ratio value used in the calculation of % Delta F was derived from the Negative Binding control wells. % Delta F values were then used to calculate % Specific Binding values according to the equation below: Specific Binding (%)={(Sample Delta F−Negative Binding Delta F)/(Total Binding Delta F−Negative Binding Delta F)}×100
(§4) For standard calculations of % Specific Binding Total Binding Delta F was taken from Total Binding control wells which contained all of the aforementioned components of the assay but without inclusion of any competing test compound.
(§5) In those experiments where DMSO normalization was applied DMSO normalised % Specific Binding was calculated essentially according to the equation above except that in this case Total Binding Delta F was taken from wells containing all of the components in the Total Binding control wells as well as DMSO at a concentration equivalent to that in the relevant sample well.
(§6) In a second series of experiments further selectivity data was generated for TICA0049 and TICA0072 Fabs in which a subset of four of the twelve compounds listed in FIG. 4 were retested along with ticagrelor, TAM and TIM and several adenosine related compounds. Here, in a refinement to the earlier investigations in Table 2, experiments were designed in order to enable normalisation of percent specific binding values to correct for any non-specific vehicle related effects due to DMSO. Example plotted data from this second series of experiments is shown in FIG. 5A-F along with tabulated IC50 values in Table 3.

The target in the next data set is TICA0072 Fab. Briefly: HTRF competition binding selectivity assay, TICA0072 His-Fab. Details: species or system human. As to conditions: second series (Table 3), DMSO normalised. The protocol: as §1, §2, §3, §4, §5, §6
In a further data set the target is TICA0053 Fab. Briefly: HTRF competition binding selectivity assay, TICA0053 His-Fab. Also noted: species or system human. As to conditions: first series (Table 2), not DMSO normalised. The procedure:
as §1, §2, §3, §4, §5

In another data set the target is TICA0010 Fab. In words: HTRF competition binding selectivity assay, TICA0010 His-Fab. Also noted: species or system human. As to conditions: first series (Table 2), not DMSO normalised. The protocol: as §1, §2, §3, §4, §5
Another data set addresses TICA0162 Fab. Briefly: HTRF competition binding selectivity assay, TICA0162 His-Fab. Details: species or system human. To be noted: Table 7, DMSO normalised; 5 nM biotinylated ticagrelor, 1 nM His Fab; read-out: IC50 (uM) for inhibition of biotinylated ticagrelor binding to TICA0162 Fab. The protocol: as §1
as §2, with “protocol. […]” for “protocol.”
as §5

The conditions of data set [1]: human, in vivo; cited from earlier work.
Data set [2] can be described thus: Equilibrium affinity by KinExA3200, ticagrelor. To be noted: modifications in VL CDR3 or VH CDR3 only. It is filed as binding. The protocol:
The affinity of anti-ticagrelor/TAM Fabs generated in Example 5 was determined using the KinExA3200. For the KinExA affinity measurement, beads (600 mg Azlactone beads) were first prepared by reacting them overnight with 1 mg streptavidin in 50 mM NaHCO3. Following blocking with 2 changes of Tris buffer (1M Tris pH 8.7, 10 mg/mL BSA) the streptavidin coated beads were resuspended in a total volume of 8 mL. Beads (1.33 mL, equivalent to 100 mg original dry Azlactone beads) were washed completely with PBS, then allowed to bind to approximately 2.5 μg biotin-ticagrelor in 1 mL PBS for 10 minutes with occasional agitation. […]
All assays were performed at room temperature. […] Bound antibody was then detected using DyLight649 labelled mouse anti-human Heavy and Light chain antibody. Sample volume (300-1300 μL) and injection time (90-120 s) varied with concentration, and 2 -3 reads were varied out per sample. The data were analysed using the KinExA n-Curve Analysis software. Using the Constant Partner analysis the equilibrium KD for the anti-ticagrelor Fab antibodies was determined.
As in the prior Example, Fabs were allowed to equilibrate at room temperature in the presence of either unmodified ticagrelor or TAM at concentrations from 20-fold excess. […] Bound antibody was then detected using a DyLight649 labelled mouse anti-human Heavy and Light chain detection antibody. […]

Data set [3] deals with TICA0159 IgG binding to biotinylated ticagrelor. Briefly: Second generation HTRF epitope competition assay. To be noted: for IC50: Fab, 16 nM TICA0159 IgG, 1 nM biotinylated ticagrelor; for Fold Improved: IC50 relative to parent TICA0072 Fab. The procedure: Purified parent TICA0072 (scFv or Fab) was used as a benchmark in all experiments such that improvements in IC50 measured with optimized variants (scFv or Fab) could be expressed as fold improvements over parent TICA0072. Total Binding Control Wells contained all assay components except that 5 ul assay buffer was added in place of the purified scFv or Fab sample. Negative Binding control wells contained all of the components of the Total Binding control wells except that 5 ul of assay buffer was added in place of the TICA0072 IgG.
In both single point HTS and multipoint IC50 profiling versions of the assay. plates were incubated for 3 hrs at RT before being read on an Envision plate reader using a standard HTRF read protocol in which samples are excited at 337 nm and time resolved fluorescence emission is measured at both 620 nm and 665 nM.
Raw 665 nm and 620 nm counts were used to calculate Delta F (%) and % Specific Binding according to the equations described earlier in Assays 1 and 4, respectively. For multipoint secondary profiling experiments IC50 values were determined using Graphpad Prism software using sigmoidal dose response (variable slope) curve fitting (4 parameter logistic equation).
This assay was used only in multipoint IC50 profiling format (as opposed to HTS format) and was performed essentially identically to the method given in Assay 5 (above) for multipoint IC50 profiling of purified Fab variants in the parent TICA0072 IgG based epitope competition assay. The only difference being that TICA0159 IgG was used in place of TICA0072 IgG at the appropriate point in the assay set up but at the same 16nM final assay concentration. In all other respects this assay was performed exactly as described above in the multipoint secondary profiling version for purified Fab.

Where [4] appears, read: second series (Table 3), DMSO normalised.
Where [5] appears, read: second series (Table 3), DMSO normalised, read-out: IC50 in competition binding selectivity studies, TICA0049.
Setting [6] is: first series (Table 2), not DMSO normalised.
[7] abbreviates: first series (Table 2), not DMSO normalised, read-out: IC50 (uM) for inhibition of biotinylated ticagrelor binding to TICA0049 his-Fab.

Where two headings read alike, the source gives them in different places. Bounds are passed on as bounds.

As for `Nc1ncnc2c1ncn2[C@@H]1O[C@H](COP(=O)(O)OP(=O)(O)O)[C@@H](O)[C@H]1O` [ADP, adenosine diphosphate], the “IC50 in competition binding selectivity studies, TICA0049” value at TICA0049 Fab (setting [4]) is “trace of inhibition”. For the same molecule, on TICA0072 Fab, the “IC50 in competition binding selectivity studies, TICA0072” value is listed as “trace of inhibition”.
Take `Nc1ncnc2c1ncn2[C@@H]1O[C@H](COP(=O)(O)OP(=O)(O)OP(=O)(O)O)[C@@H](O)[C@H]1O` [ATP, adenosine triphosphate]: the “IC50 in competition binding selectivity studies, TICA0049” value on TICA0049 Fab (setting [4]) is recorded as “trace of inhibition”. Further, on TICA0072 Fab, the “IC50 in competition binding selectivity studies, TICA0072” value is “trace of inhibition”.
For the molecule `Nc1ncnc2c1ncn2[C@@H]1O[C@H](CO)[C@@H](O)[C@H]1O` [Adenosine], the “IC50 in competition binding selectivity studies, TICA0049” value on TICA0049 Fab (setting [4]) is “trace of inhibition”. Also, at TICA0072 Fab, the “IC50 in competition binding selectivity studies, TICA0072” value is on record as “trace of inhibition”.
Consider `CCCC(=O)Nc1ncnc2c1ncn2[C@@H]1O[C@@H]2COP(=O)(O)O[C@H]2[C@H]1OC(=O)CCC` [Bucladesine], for which the “IC50 in competition binding selectivity studies, TICA0049” value on TICA0049 Fab (setting [4]) is given as “weak inhibition”. The IC50 at TICA0049 Fab (setting [5]) is 865 µM.
On to `CSCCNc1nc(SCCC(F)(F)F)nc2c1ncn2[C@@H]1O[C@H](COP(=O)(O)OP(=O)(O)C(Cl)(Cl)P(=O)(O)O)[C@@H](O)[C@H]1O` [Cangrelor], for which the “IC50 (uM) for inhibition of biotinylated ticagrelor binding to TICA0049 his-Fab” value on TICA0049 Fab (setting [6]) was “competitive inhibition”. In addition, the IC50 on TICA0049 Fab (setting [7]) turned out to be 208 µM; on TICA0049 Fab (setting [5]) it was 188 µM; at TICA0053 Fab (read-out: IC50 (uM) for inhibition of biotinylated ticagrelor binding to TICA0053 his-Fab) it was 17.5 µM; at TICA0010 Fab (read-out: IC50 (uM) for inhibition of biotinylated ticagrelor binding to TICA00l0 his-Fab), 102 µM. For the same molecule, on TICA0049 Fab (setting [4]), the “IC50 in competition binding selectivity studies, TICA0049” value was “significant inhibition”. Besides, at TICA0053 Fab, the “IC50 (uM) for inhibition of biotinylated ticagrelor binding to TICA0053 his-Fab” value is reported as “competitive inhibition”. The “IC50 (uM) for inhibition of biotinylated ticagrelor binding to TICA00l0 his-Fab” value on TICA0010 Fab was “competitive inhibition”.
On to `NS(=O)(=O)c1cc2c(cc1Cl)NC(C1CC3C=CC1C3)NS2(=O)=O` (centres unmarked) [Cyclothiazide], for which, on TICA0162 Fab, the IC50 is > 1000 µM.
`CC(=O)NC[C@H]1CN(c2ccc(N3CCOCC3)c(F)c2)C(=O)O1` [Linezolid]: the “IC50 (uM) for inhibition of biotinylated ticagrelor binding to TICA0049 his-Fab” value on TICA0049 Fab (setting [6]) is “partial competitive inhibition”. The IC50 stood at 467 µM at TICA0049 Fab (setting [7]) and 902 µM at TICA0049 Fab (setting [5]). Besides, at TICA0049 Fab (setting [4]), the “IC50 in competition binding selectivity studies, TICA0049” value is recorded as “weak inhibition”.
Consider `CCCSc1nc(N)c2nnn(C3CC(OCCO)C(O)C3O)c2n1` (centres unmarked) [TIM], for which, in data set [1], the detectability in circulation result is reported as “undetectable after 8 hours” and the “fraction of the parent ticagrelor” value was < 10%.

B1: TICA0152: VL CDR3 variant of TICA0072; VH SEQ ID NO:62, VL SEQ ID NO:67 (antibody, listed as Homo sapiens, V domains shown)
VH: QVQLQESGAEVKKPGSSVRVSCKASGGTFDSYSIHWVRQAPGQGLEWMGGIIPAFGTLSSAQDFQARVTISADKSTSTAYMELSGLRSEDTAVYYCARGSHLYDFWSASHPPNDALAIWGQGTLVTVSS
VL: QSVVTQPPSVSAAPGQKVTISCSGSNSDIGNNYVSWYQQLPGTAPKLLIYDNNKRPSGIPDRFSGSKSGTSATLAITGLQAGDEADYYCGTWLYDRAVGLFGGGTKVTVL
For the molecule B1, the “fold improvement over TICA0072” value in data set [2] is recorded as 200 fold. For the same molecule, in data set [3], the IC50 is 0.0735 µM and the “Fold Improved” value was determined as 23.3.

B2: TICA0162: VH CDR3 variant of TICA0072; VH SEQ ID NO:52, VL SEQ ID NO:57 (antibody, listed as Homo sapiens, V domains shown)
VH: QVQLQESGAEVKKPGSSVRVSCKASGGTFDSYSIHWVRQAPGQGLEWMGGIIPAFGTLSSAQDFQARVTISADKSTSTAYMELSGLRSEDTAVYYCARGSFDYYFWSASHPPNDALAIWGQGTLVTVSS
VL: QSVVTQPPSVSAAPGQKVTISCSGSNSDIGNNYVSWYQQLPGTAPKLLIYDNNKRPSGIPDRFSGSKSGTSATLAITGLQAGDEADYYCGTWDISLSAGLFGGGTKVTVL
With B2, the “fold improvement over TICA0072” value in data set [2] is listed as 50 fold. In data set [3], the IC50 is 0.0163 µM and the “Fold Improved” value was found to be 105.2.
